Measurements published in ChEMBL document CHEMBL1909294, “Translating clinical findings into knowledge in drug safety evaluation--drug induced liver injury prediction system (DILIps)” (PLoS Comput Biol, 2011).

What was measured:
[1] = tested on: Hepatotoxicity;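 on HepSE bilirubinemia: bilirubinemia hepatic side effect score drawn from the DILIps training data, a prediction system for drug-induced liver injury; call rule not given here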;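 on HepSE cholelithiasis: hepatic side effect score for cholelithiasis, drawn from the DILIps training data for predicting drug-induced liver injury; call rule not given here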;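 on HepSE cirrhosis: cirrhosis hepatic side effect score taken from the DILIps (drug-induced liver injury prediction) training set; call rule not given here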;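 on HepSE elevated liver function tests: hepatic side effect score for raised liver function tests, as recorded in the DILIps training set used for predicting drug-induced liver injury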;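 on HepSE hepatomegaly: hepatic side effect score for hepatomegaly, taken from the training set of the DILIps drug-induced liver injury prediction system; call rule not given here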;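 on HepSE liver function tests abnormal: hepatic side effect score taken from the DILIps (drug-induced liver injury prediction system) training data, here covering abnormal liver function test findings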
[2] = tested on: Hepatotoxicity; remark: listed apart in the source;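 on HepSE bilirubinemia: bilirubinemia hepatic side effect score drawn from the DILIps training data, a prediction system for drug-induced liver injury; call rule not given here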;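 on HepSE cholelithiasis: hepatic side effect score for cholelithiasis, drawn from the DILIps training data for predicting drug-induced liver injury; call rule not given here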;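 on HepSE cirrhosis: cirrhosis hepatic side effect score taken from the DILIps (drug-induced liver injury prediction) training set; call rule not given here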;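 on HepSE elevated liver function tests: hepatic side effect score for raised liver function tests, as recorded in the DILIps training set used for predicting drug-induced liver injury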;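 on HepSE hepatomegaly: hepatic side effect score for hepatomegaly, taken from the training set of the DILIps drug-induced liver injury prediction system; call rule not given here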;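 on HepSE liver function tests abnormal: hepatic side effect score taken from the DILIps (drug-induced liver injury prediction system) training data, here covering abnormal liver function test findings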
[3] = tested on: Hepatotoxicity; remark: listed apart in the source;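 on HepSE bilirubinemia: bilirubinemia hepatic side effect score drawn from the DILIps training data, a prediction system for drug-induced liver injury; call rule not given here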;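 on HepSE cholelithiasis: hepatic side effect score for cholelithiasis, drawn from the DILIps training data for predicting drug-induced liver injury; call rule not given here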;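 on HepSE cirrhosis: cirrhosis hepatic side effect score taken from the DILIps (drug-induced liver injury prediction) training set; call rule not given here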;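 on HepSE elevated liver function tests: hepatic side effect score for raised liver function tests, as recorded in the DILIps training set used for predicting drug-induced liver injury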;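 on HepSE hepatomegaly: hepatic side effect score for hepatomegaly, taken from the training set of the DILIps drug-induced liver injury prediction system; call rule not given here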;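 on HepSE liver function tests abnormal: hepatic side effect score taken from the DILIps (drug-induced liver injury prediction system) training data, here covering abnormal liver function test findings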
[4] = tested on: Hepatotoxicity; remark: listed apart in the source;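 on HepSE bilirubinemia: bilirubinemia hepatic side effect score drawn from the DILIps training data, a prediction system for drug-induced liver injury; call rule not given here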;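 on HepSE cholelithiasis: hepatic side effect score for cholelithiasis, drawn from the DILIps training data for predicting drug-induced liver injury; call rule not given here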;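 on HepSE cirrhosis: cirrhosis hepatic side effect score taken from the DILIps (drug-induced liver injury prediction) training set; call rule not given here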;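 on HepSE hepatomegaly: hepatic side effect score for hepatomegaly, taken from the training set of the DILIps drug-induced liver injury prediction system; call rule not given here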;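 on HepSE liver function tests abnormal: hepatic side effect score taken from the DILIps (drug-induced liver injury prediction system) training data, here covering abnormal liver function test findings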
[5] = tested on: Hepatotoxicity; remark: listed apart in the source
[6] = tested on: Hepatotoxicity; remark: listed apart in the source
[7] = tested on: Hepatotoxicity; remark: listed apart in the source
[8] = tested on: Hepatotoxicity; remark: listed apart in the source
[9] = tested on: Hepatotoxicity; remark: listed apart in the source
[10] = tested on: Hepatotoxicity; remark: listed apart in the source
[11] = tested on: Hepatotoxicity; remark: listed apart in the source
[12] = tested on: Hepatotoxicity; remark: listed apart in the source
[13] = tested on: Hepatotoxicity; remark: listed apart in the source
[14] = tested on: Hepatotoxicity; remark: listed apart in the source

SMILES | HepSE_cholelithiasis [1] | HepSE_hepatomegaly [2] | HepSE_bilirubinemia [3] | HepSE_liver fatty [4] | HepSE_liver function tests abnormal [5] | HepSE_cirrhosis [6] | HepSE_hepatic necrosis [7] | HepSE_elevated liver function tests [8] | HepSE_liver disease [9] | HepSE_hepatic failure [10] | HepSE_cholecystitis [11] | HepSE_hepatitis [12] | HepSE_jaundice [13] | HepSE_Combined Scores [14] | other results
Cc1oncc1C(=O)Nc1ccc(C(F)(F)F)cc1 [LEFLUNOMIDE] | 1 | 0 | 0 | 0 | 1 | 0 | 1 | 0 | 1 | 1 | 0 | 1 | 1 | 7 | 
Nc1cccc2c1CN(C1CCC(=O)NC1=O)C2=O (configuration not stated) [LENALIDOMIDE] | 0 | 0 | 1 | 0 | 1 | 0 | 0 | 0 | 0 | 1 | 1 | 0 | 0 | 4 | 
N#Cc1ccc(C(c2ccc(C#N)cc2)n2cncn2)cc1 [LETROZOLE] | 0 | 0 | 0 | 0 | 0 | 0 | 0 | 0 | 0 | 0 | 0 | 0 | 0 | 0 | 
Nc1nc2c(c(=O)[nH]1)N(C=O)C(CNc1ccc(C(=O)N[C@@H](CCC(=O)O)C(=O)O)cc1)CN2 (some centres not stated) [LEUCOVORIN] | 0 | 0 | 0 | 0 | 0 | 0 | 0 | 0 | 0 | 0 | 0 | 0 | 0 | 0 | 
CC(=O)O.CCNC(=O)[C@@H]1CCCN1C(=O)[C@H](CCCNC(=N)N)NC(=O)[C@H](CC(C)C)NC(=O)[C@@H](CC(C)C)NC(=O)[C@H](Cc1ccc(O)cc1)NC(=O)[C@H](CO)NC(=O)[C@H](Cc1c[nH]c2ccccc12)NC(=O)[C@H](Cc1c[nH]cn1)NC(=O)[C@@H]1CCC(=O)N1 [LEUPROLIDE ACETATE] | 0 | 1 | 0 | 0 | 1 | 0 | 0 | 0 | 0 | 0 | 0 | 0 | 0 | 2 | 
CC(C)(C)NC[C@H](O)COc1cccc2c1CCCC2=O [LEVOBUNOLOL] | 0 | 0 | 0 | 0 | 0 | 0 | 0 | 0 | 0 | 0 | 0 | 0 | 0 | 0 | 
C[C@@H]1CN([C@H]2CC[C@](C#N)(c3ccc(F)cc3)CC2)CC[C@]1(C(=O)O)c1ccccc1 [LEVOCABASTINE] | 0 | 0 | 0 | 0 | 0 | 0 | 0 | 0 | 0 | 0 | 0 | 0 | 0 | 0 | 
C#C[C@]1(O)CC[C@H]2[C@@H]3CCC4=CC(=O)CC[C@@H]4[C@H]3CC[C@@]21CC [LEVONORGESTREL] |  |  |  |  |  |  |  |  |  |  |  |  |  |  | HepSE_cholelithiasis ([1]; Liver): 0; HepSE_hepatomegaly ([2]; Liver): 0; HepSE_bilirubinemia ([3]; Liver): 0; HepSE_liver fatty ([4]; Liver): 0; HepSE_liver function tests abnormal ([5]; Liver): 0; HepSE_cirrhosis ([6]; Liver): 0; HepSE_hepatic necrosis ([7]; Liver): 0; HepSE_elevated liver function tests ([8]; Liver): 0; HepSE_liver disease ([9]; Liver): 0; HepSE_hepatic failure ([10]; Liver): 0; HepSE_cholecystitis ([11]; Liver): 0; HepSE_hepatitis ([12]; Liver): 0; HepSE_jaundice ([13]; Liver): 0; HepSE_Combined Scores ([14]; Liver): 0
